Measurements as given in PMC8319832, “Fine-Tuning of Alkaline Residues on the Hydrophilic Face Provides a Non-toxic Cationic α-Helical Antimicrobial Peptide Against Antibiotic-Resistant ESKAPE Pathogens” (Frontiers in Microbiology, 2021).
≈ marks a conversion by molar mass, not a printed value. Where a SMILES comes first, the peptide text is derived from it.

Legend:
A. baumannii 13079 = test: MIC, broth dilution; assay type: cell-based, Acinetobacter baumannii; conditions: CLSI broth dilution, MHB, 37°C, 20 h, OD630, at least three repeats; clinical isolate, CRE, MDR
Text: (§1) All experiments were repeated at least three times.

A. baumannii 13012 = test: MIC, broth dilution; assay type: cell-based, Acinetobacter baumannii; conditions: CLSI broth dilution, MHB, 37°C, 20 h, OD630, at least three repeats; clinical isolate, CRE, MDR
Text: as §1

A. baumannii 906 = test: MIC, broth dilution; assay type: cell-based, Acinetobacter baumannii; conditions: CLSI broth dilution, MHB, 37°C, 20 h, OD630, at least three repeats; clinical isolate, CRE, MDR
Text: as §1

A. baumannii 9068 = test: MIC, broth dilution; assay type: cell-based, Acinetobacter baumannii; conditions: CLSI broth dilution, MHB, 37°C, 20 h, OD630, at least three repeats; clinical isolate, CRE, MDR
Text: as §1

healthy ICR mice = test: In vivo systemic toxicity; set-up: species or system mouse
Description: Healthy ICR mice (male, 6–8 weeks old, ∼30 g) were used to determine the in vivo systemic toxicity of the peptide ([Chen et al., 2013]). The mice were randomly divided into six groups (n = 10). Five cohorts were intraperitoneally injected with a single dose of 10, 20, 40, 80, and 160 mg kg^–1 body weight of the peptide dissolved in PBS. The mice injected with PBS were used as control. The survival of mice was inspected for 7 days. All surviving mice were euthanized at the end of the experiments.
For histopathological examination, each group of ICR mice (n = 6) was injected intraperitoneally with PBS or with a single dose of 40 mg kg^–1 body weight of the peptide. At 1, 2, and 7-day post-injection, the mice were euthanized, and the liver, kidney and spleen were collected and fixed with 4% formaldehyde for haematoxylin and eosin staining.

E. faecalis ATCC 29212 = test: MIC, broth dilution; assay type: cell-based
Description: as §1
(§2) To study the influence of physiological ions on the antimicrobial activities of the peptides, The MICs of the peptides were also determined against the standard bacterial strains cultured in MHB containing various salts at their physiological concentrations (150 mM NaCl, 4.5 mM KCl, 1 mM MgCl2, 2 mM CaCl2, 6 μM NH4HCO3, and 4 μM FeCl3) ([Ma et al., 2016]).

P. aeruginosa ATCC 27853 = test: MIC, broth dilution; assay type: cell-based, Pseudomonas aeruginosa
Description: as §1, §2

K. pneumoniae 9126 = test: MIC, broth dilution; assay type: cell-based, Klebsiella pneumoniae; conditions: CLSI broth dilution, MHB, 37°C, 20 h, OD630, at least three repeats; clinical isolate, CRE
Text: as §1

E. coli ATCC25922 = test: MIC, broth dilution; assay type: cell-based, Escherichia coli
A. baumannii ATCC 19606 = test: MIC, broth dilution; assay type: cell-based, Acinetobacter baumannii
Description: as §1, §2

S. aureus ATCC29213 = test: MIC, broth dilution; assay type: cell-based, Staphylococcus aureus
Description: as §1, §2

S. aureus 1176 = test: MIC, broth dilution; assay type: cell-based, Staphylococcus aureus; conditions: CLSI broth dilution, MHB, 37°C, 20 h, OD630, at least three repeats; clinical isolate
Text: as §1

S. aureus 9124 = test: MIC, broth dilution; assay type: cell-based, Staphylococcus aureus; conditions: CLSI broth dilution, MHB, 37°C, 20 h, OD630, at least three repeats; clinical isolate, MRSA
Text: as §1

S. aureus 4188 = test: MIC, broth dilution; assay type: cell-based, Staphylococcus aureus; conditions: CLSI broth dilution, MHB, 37°C, 20 h, OD630, at least three repeats; clinical isolate, penicillin-resistant
Text: as §1

S. aureus ATCC 25923 = test: MIC, broth dilution; assay type: cell-based, Staphylococcus aureus; conditions: CLSI broth dilution, MHB, 37°C, 20 h, OD630, at least three repeats; standard strain
Text: as §1

[1] = tested on: human red blood cells (hRBCs); test: Hemolytic activity determination; assay type: cell-based; conditions: peptide 100 μg ml^–1; hRBCs in 0.9% sodium chloride, 37°C, 1 h, OD540, 1% Triton X-100 = 100%; three independent experiments
Description: Fresh human red blood cells (hRBCs) were collected in a sterile borosilicate glass tube covered with sodium citrate as the anticoagulating agent. […] Two-fold dilutions of the peptides were prepared in 0.9% sodium chloride to 100 μl and mixed with equal volumn of hRBC suspension to final peptide concentrations ranging from 12.5 to 200 μg ml^–1. After co-incubation at 37°C for 1 h, the samples were centrifuged (2,000 × g, 4°C, 20 min), and the supernatant (100 μl) was taken for optical density (OD540) measurements (Asample). The hRBCs assayed with 0.9% sodium chloride (Ablank) or 1% Triton X-100 (Apositive) were applied as 0% and 100% hemolysis, respectively. Three independent experiments were performed and the percent hemolysis was calculated according to the following equation ([Yin et al., 2012]; [Li et al., 2016]):
Hemolysis(%)=100*(Asample-Ablank)/(Apositive-Ablank)

E. coli 2687 = test: MIC, broth dilution; assay type: cell-based, Escherichia coli; conditions: CLSI broth dilution, MHB, 37°C, 20 h, OD630, at least three repeats; clinical isolate, ESBL
Text: as §1

E. coli 2678 = test: MIC, broth dilution; assay type: cell-based, Escherichia coli; conditions: CLSI broth dilution, MHB, 37°C, 20 h, OD630, at least three repeats; clinical isolate, ESBL
Text: as §1

E. coli ATCC35218 = test: MIC, broth dilution; assay type: cell-based, Escherichia coli; conditions: CLSI broth dilution, MHB, 37°C, 20 h, OD630, at least three repeats; standard strain
Text: as §1

[2] = CLSI broth dilution, MHB, 37°C, 20 h, OD630, at least three repeats, standard strain
[3] = salt sensitivity test, MHB, control without addition of salt ions

CC[C@H](C)[C@H](NC(=O)[C@H](CCCCN)NC(=O)[C@H](CCCCN)NC(=O)[C@@H](NC(=O)[C@@H](N)Cc1ccccc1)[C@@H](C)CC)C(=O)N[C@@H](C)C(=O)N[C@@H](CCCCN)C(=O)N[C@@H](CC(C)C)C(=O)N[C@@H](CC(C)C)C(=O)N[C@@H](CCCCN)C(=O)N[C@@H](CCCCN)C(=O)N[C@H](C(=O)N[C@@H](Cc1ccccc1)C(N)=O)[C@@H](C)CC [BmKn2-7K] (H-FIKKIAKLLKKIF-NH2)
MIC (A. baumannii 13079): 2.5 µg/mL (≈ 1.57 µM)
MIC (A. baumannii 13012): 2.5 µg/mL (≈ 1.57 µM)
MIC (A. baumannii 906): 2.5 µg/mL (≈ 1.57 µM)
MIC (A. baumannii 9068): 2.5 µg/mL (≈ 1.57 µM)
histopathological examination of liver, spleen and kidney (healthy ICR mice; single intraperitoneal dose 40 mg kg^–1 body weight, 1, 2 and 7 days post-treatment, n = 6, haematoxylin-eosin): no necrosis or drug-induced injury was observed
mice surviving for 7 days (healthy ICR mice; single intraperitoneal dose 80 mg kg^–1 body weight, n = 10): 60%
survival of mice (healthy ICR mice; single intraperitoneal dose 160 mg kg^–1 body weight, n = 10): died within 24 h
survival of mice for 7 days (healthy ICR mice; single intraperitoneal dose up to 40 mg kg^–1 body weight, n = 10 per cohort): all mice
median lethal dose (LD50) (healthy ICR mice; single intraperitoneal injection, ICR mice, 7 days): exceeds 80 mg kg^–1 body weight
MIC (E. faecalis ATCC 29212; [2]): 5 µg/mL (≈ 3.15 µM)
MIC (E. faecalis ATCC 29212; MHB with 4 μM FeCl3): 20 µg/mL (≈ 12.6 µM)
MIC (E. faecalis ATCC 29212; MHB with 6 μM NH4HCO3): 20 µg/mL (≈ 12.6 µM)
MIC (E. faecalis ATCC 29212; MHB with 1 mM MgCl2): 20 µg/mL (≈ 12.6 µM)
MIC (E. faecalis ATCC 29212; MHB with 2 mM CaCl2): 10 µg/mL (≈ 6.29 µM)
MIC (E. faecalis ATCC 29212; MHB with 4.5 mM KCl): 20 µg/mL (≈ 12.6 µM)
MIC (E. faecalis ATCC 29212; MHB with 150 mM NaCl): 10 µg/mL (≈ 6.29 µM)
MIC (E. faecalis ATCC 29212; [3]): 5 µg/mL
MIC (P. aeruginosa ATCC 27853; [2]): 5 µg/mL (≈ 3.15 µM)
MIC (P. aeruginosa ATCC 27853; MHB with 4 μM FeCl3): 20 µg/mL (≈ 12.6 µM)
MIC (P. aeruginosa ATCC 27853; MHB with 6 μM NH4HCO3): 20 µg/mL (≈ 12.6 µM)
MIC (K. pneumoniae 9126): 5 µg/mL (≈ 3.15 µM)
MIC (E. coli ATCC25922; CLSI broth dilution, MHB, 6.25 × 10^5 cfu per ml, 37°C, 20 h, OD630, at least three repeats): 5 µg/mL (≈ 3.15 µM)
MIC (E. coli ATCC25922; MHB with 4 μM FeCl3): 20 µg/mL (≈ 12.6 µM)
MIC (E. coli ATCC25922; MHB with 6 μM NH4HCO3): 20 µg/mL (≈ 12.6 µM)
MIC (A. baumannii ATCC 19606; [2]): 2.5 µg/mL (≈ 1.57 µM)
MIC (A. baumannii ATCC 19606; MHB with 4 μM FeCl3): 5 µg/mL (≈ 3.15 µM)
MIC (A. baumannii ATCC 19606; MHB with 6 μM NH4HCO3): 5 µg/mL (≈ 3.15 µM)
MIC (A. baumannii ATCC 19606; MHB with 1 mM MgCl2): 2.5 µg/mL (≈ 1.57 µM)
MIC (A. baumannii ATCC 19606; MHB with 2 mM CaCl2): 2.5 µg/mL (≈ 1.57 µM)
MIC (A. baumannii ATCC 19606; MHB with 4.5 mM KCl): 5 µg/mL (≈ 3.15 µM)
MIC (A. baumannii ATCC 19606; MHB with 150 mM NaCl): 2.5 µg/mL (≈ 1.57 µM)
MIC (A. baumannii ATCC 19606; [3]): 2.5 µg/mL
MIC (S. aureus ATCC29213; MHB with 4 μM FeCl3): 5 µg/mL (≈ 3.15 µM)
MIC (S. aureus ATCC29213; MHB with 6 μM NH4HCO3): 5 µg/mL (≈ 3.15 µM)
MIC (S. aureus ATCC29213; MHB with 1 mM MgCl2): 5 µg/mL (≈ 3.15 µM)
MIC (S. aureus ATCC29213; MHB with 2 mM CaCl2): 5 µg/mL (≈ 3.15 µM)
MIC (S. aureus ATCC29213; MHB with 4.5 mM KCl): 5 µg/mL (≈ 3.15 µM)
MIC (S. aureus ATCC29213; MHB with 150 mM NaCl): 5 µg/mL (≈ 3.15 µM)
MIC (S. aureus ATCC29213; [3]): 5 µg/mL
MIC (S. aureus 1176): 2.5 µg/mL (≈ 1.57 µM)
MIC (S. aureus 9124): 2.5 µg/mL (≈ 1.57 µM)
MIC (S. aureus 4188): 2.5 µg/mL (≈ 1.57 µM)
MIC (S. aureus ATCC 25923): 5 µg/mL (≈ 3.15 µM)
percent hRBC hemolysis [1]: 12.2%
MIC (E. coli 2687): 10 µg/mL (≈ 6.29 µM)
MIC (E. coli 2678): 10 µg/mL (≈ 6.29 µM)
MIC (E. coli ATCC35218): 10 µg/mL (≈ 6.29 µM)
